The subject of data set [1] is Porcine Smooth Muscle Cell. Kind of data set: Effects of compounds on cell proliferation using 3H thymidine incorporation. The class given is cell-based. Here is the method: The compounds of this invention are useful as antiproliferative agents. The following procedures show the evaluation of representative compounds of this invention in standard pharmacological test procedure which measured ability of the evaluated compound to inhibit smooth muscle cell proliferation
Effects of Compounds On Cell Proliferation Using ^3H Thymidine Incorporation
Human and porcine smooth muscle cells were tested in early passage (generally passage 3-7) at sub-confluent conditions. Cultures were grown in 16 mm (24 well) multi-well culture dishes in medium 199 supplemented with 10% fetal bovine serum and 2% antibiotic/antimycotic. At sub-confluence, the cells were placed in a defined serum free medium (AIM-V; Gibco) for 24-48 h prior to initiating the experimental protocol.
Compounds were added to each well at 50 fold dilution (20 μL/well) and the plates were incubated for 24-36 h at 37° C. in 5% CO2. Compounds were initially dissolved in 50% ethanol and serially diluted into media. Compounds were routinely evaluated at concentrations from 1 to 100 μM. As a control, grade II porcine intestinal mucosal heparin (sodium salt) was routinely evaluated in all cell preparations at concentrations from 0.1 to 100 μg/mL.
At the completion of the test procedure, plates were placed on ice, washed three times with ice cold phosphate buffered saline (PBS) and incubated in ice cold 10% trichloroacetic acid (TCA) got 30 min to remove acid soluble proteins. Solution was transferred to scintillation vials containing 0.4 N HCl (500 μL/vial to neutralize NaOH) and each well was rinsed two times with water (500 μL) for a total volume of 2 mL/vial.
Data was obtained, in triplicate, for both control and experimental samples. Control (100%) data was obtained from maximally stimulated cells, as the result of growth factor or serum stimulation. Experimental data was obtained from cells maximally stimulated with growth factor or serum and treated with compound. Data are expressed as an IC50 or percent inhibition in Table I below.

By melting point is commonly meant the temperature of the solid-liquid transition.

Turning to `O=C(Nc1cc(CO[C@@H]2O[C@H](CO)[C@@H](O[C@H]3O[C@H](CO)[C@@H](O)[C@H](O)[C@H]3O)[C@H](O)[C@H]2O)ccc1Cl)c1cccnc1` [Example 16, N-[2-Chloro-5-[[(4-O-α-D-glucopyranosyl-β-D-glucopyranosyl)oxy]methyl]phenyl]-3-pyridinecarboxamide], the melting point was > 106 °C (dec.). In addition, the inhibition at 50 µM in data set [1] (Sus scrofa, @ 50 μM, read-out: Porcine Smooth Muscle Cell Antiproliferation percent inhibition) was 18%. Consider `O=C(OC[C@H]1O[C@H](O[C@H]2[C@H](O)[C@@H](O)[C@H](OCc3ccc(Cl)c([N+](=O)[O-])c3)O[C@@H]2COC(=O)c2cccnc2)[C@H](O)[C@@H](O)[C@@H]1O)c1cccnc1` [Example 14, (4-Chloro-3-nitrophenyl)methyl-4-O-[6-O-(3-pyridinylcarbonyl)-α-D-glucopyranosyl]-β-D-glucopyranoside-6-(3-pyridinecarboxylate)], for which the IC50 in data set [1] (serum/growth factor stimulated cells, 3H thymidine incorporation, 24-36 h, read-out: Porcine Smooth Muscle Cell Antiproliferation IC50) stood at 6.56 µM. `Cc1ccc(CO[C@@H]2O[C@H](Cn3cnc([N+](=O)[O-])c3)[C@@H](O[C@H]3O[C@H](Cn4cnc([N+](=O)[O-])c4)[C@@H](O)[C@H](O)[C@H]3O)[C@H](O)[C@H]2O)cc1[N+](=O)[O-]` [Example 22, 5-{[6,6′-Dideoxy-6,6′-bis(4-nitro-imidazol-1-yl)-β-maltosyl]-oxy-methyl}-2-methyl-1-nitrobenzene]: the “Porcine Smooth Muscle Cell Antiproliferation percent inhibition” value in data set [1] (@ 100 μM) worked out at 23% @ 100.

These data come from patent publication US7514411B2, “Acylated benzylmaltosides as inhibitors of smooth muscle cell proliferation” (Wyeth, priority 1998, dated 2009).
